Measurements: ChEMBL document CHEMBL1201862, “PubChem BioAssay data set” (2004)
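Results reflect a 48-hour exposure of cells in 96-well plates to compound at five concentrations. GI50 marks 50% less growth.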 Calls of active or inactive are those of the source. Rule as the data show it: active = GI50 up to about 1.1 µM and inactive = higher.

How the values were obtained:
Assay in all cases: inhibition of tumour cell growth, NCI panel, 48 h
[1] = system: SN12C
[2] = system: K562
[3] = system: KM12
[4] = system: OVCAR-4
[5] = system: HCT-116
[6] = system: SK-MEL-28
[7] = system: ACHN
[8] = system: SF-539
[9] = system: SF-268
[10] = system: HCT-15
[11] = system: HL-60
[12] = system: SNB-19
[13] = system: M14
[14] = system: MOLT-4
[15] = system: CAKI-1
[16] = system: RXF 393
[17] = system: OVCAR-5
[18] = system: PC-3
[19] = system: MDA-MB-231
[20] = system: BT-549

SMILES | GI50 [1] | GI50 [2] | GI50 [3] | GI50 [4] | GI50 [5] | GI50 [6] | GI50 [7] | GI50 [8] | GI50 [9] | GI50 [10] | GI50 [11] | GI50 [12] | GI50 [13] | GI50 [14] | GI50 [15] | GI50 [16] | GI50 [17] | GI50 [18] | GI50 [19] | GI50 [20]
N#C/C(=C\c1ccc(C(O)P(=O)(O)O)cc1)C(N)=O (stereo unspecified) | > 100 µM (inactive) | > 100 µM (inactive) | > 100 µM (inactive) | > 100 µM (inactive) | 76.9 µM (inactive) | > 100 µM (inactive) | 14.5 µM (inactive) | 35.3 µM (inactive) | > 100 µM (inactive) | > 100 µM | 6.01 µM (inactive) | > 100 µM (inactive) | > 100 µM (inactive) | 24.9 µM (inactive) |  |  |  |  |  | 
CC1(O)CCC2(C#N)CCC1C2O (stereo unspecified) | > 100 µM (inactive) | > 100 µM (inactive) | > 100 µM (inactive) | > 100 µM (inactive) | 43.5 µM (inactive) | > 100 µM (inactive) | > 100 µM (inactive) | > 100 µM (inactive) | > 100 µM (inactive) | > 100 µM | > 100 µM (inactive) | > 100 µM (inactive) | > 100 µM (inactive) | > 100 µM (inactive) | > 100 µM (inactive) | > 100 µM (inactive) | > 100 µM (inactive) |  |  | 
CCOC(=O)CCC(NC(=O)c1ccc(Nc2nc3cc(C(F)(F)F)ccc3nc2C(=O)OCC)cc1)C(=O)OCC (stereo unspecified) | 10.7 µM (inactive) | 95.3 µM (inactive) | > 10 µM (inactive) | 3.54 µM (inactive) | 6.75 µM (inactive) | 12.1 µM (inactive) | 13.8 µM (inactive) | 12.6 µM (inactive) | 14.1 µM (inactive) | 29.9 µM | > 100 µM (inactive) | 10.7 µM (inactive) | 4.51 µM (inactive) | > 100 µM (inactive) |  |  | 16.6 µM (inactive) | 9.55 µM (inactive) | 12.5 µM (inactive) | 16.3 µM (inactive)
CCCCCNC(=O)c1c(O)[nH]c(=S)[nH]c1=O | > 100 µM (inactive) | > 100 µM (inactive) | > 100 µM (inactive) | 41.6 µM (inactive) | > 100 µM (inactive) | > 100 µM (inactive) | > 100 µM (inactive) | > 100 µM (inactive) | > 100 µM (inactive) | 90.6 µM | > 100 µM (inactive) | > 100 µM (inactive) | > 100 µM (inactive) | > 100 µM (inactive) | > 100 µM (inactive) |  | > 100 µM (inactive) |  |  | 
COc1cc[n+](C)cc1 | > 100 µM (inactive) | > 100 µM (inactive) | > 100 µM (inactive) | > 100 µM (inactive) | > 100 µM (inactive) | > 100 µM (inactive) |  | > 100 µM (inactive) | > 100 µM (inactive) | > 100 µM | > 100 µM (inactive) | > 100 µM (inactive) |  | > 100 µM (inactive) |  | > 100 µM (inactive) | > 100 µM (inactive) |  |  | 
COc1cc(-c2ccc(/N=N/c3c(S(=O)(=O)O)cc4cc(S(=O)(=O)O)cc(N)c4c3O)c(OC)c2)ccc1/N=N/c1c(S(=O)(=O)O)cc2cc(S(=O)(=O)O)cc(N)c2c1O | > 100 µM (inactive) | > 78.7 µM (inactive) | > 86.1 µM (inactive) | > 57 µM (inactive) | > 100 µM (inactive) | > 100 µM (inactive) |  | > 100 µM (inactive) | > 100 µM (inactive) | 59.6 µM | 29.9 µM (inactive) | > 100 µM (inactive) |  | > 82.6 µM (inactive) |  | > 100 µM (inactive) | > 100 µM (inactive) |  |  | 
COc1ccc(-c2cc(O)c3c(C)cc(C)nc3n2)cc1 | 44.3 µM (inactive) | 23 µM (inactive) | 34.8 µM (inactive) | 26.4 µM (inactive) |  | 47.9 µM (inactive) | 44.1 µM (inactive) | > 100 µM (inactive) | 53 µM (inactive) | 24.4 µM | 15.8 µM (inactive) | 49.4 µM (inactive) | 35.3 µM (inactive) | 16 µM (inactive) | 22.9 µM (inactive) | 49.7 µM (inactive) | > 100 µM (inactive) |  | 17.7 µM (inactive) | 26.4 µM (inactive)
